Assay results reported in PubChem BioAssay AID1963827 (Molecular Pharmacology Branch, DTP, NCI, 2024).
“And” between values parts separate entries of the source, which are not always exact repeats. Identical values can stand only once.

Tested on: 994946-033-R-J1-PDC complex spheroid viability
Experiment: Anticancer human tumor 994946-033-R-J1-PDC patient-derived melanoma cell line growth inhibition [POLQ]
Conditions: for viability, T/C: stronger effect = lower value
Experimental: Multicellular complex tumor spheroid response to Polymerase (POL) inhibitors (novobiocin, ART-558, RP6685) in combination with a variety of drugs and investigational agents in selected tumor cell lines
The POL inhibitors (novobiocin, ART-558, and RP6685) were evaluated both individually and in combination with standard of care and investigational anticancer small molecules within a complex spheroid model of solid tumors. . Complex spheroids include a stromal component modeled by human endothelial cells (HUVEC) and fibroblasts modeled by human mesenchymal stem cells (MSCs). The concentration ranges selected for each drug and investigational agent were based upon clinically achievable concentrations if the clinical Cmax of the agent was known.
Compounds. The drugs and investigational agents: novobiocin (NSC847541), ART-558 (NSC835418), RP-6685 (NSC848927), peposertib (NSC802822), ceralasertib (NSC780249), elimusertib (NSC800525), camonsertib (NSC841442), AZD-1390 (NSC803789), olaparib (NSC753686), talazoparib (NSC767125), rucaparib (NSC756644), sotorasib (NSC818433), MRTX-1133 (NSC836407), SN-38 (NSC673596), topotecan (NSC609699), epotoside (NSC141540), doxorubicin (NSC123127), gemcitabine (NSC613327), 5-fluorouracil (NSC19893), paclitaxel (NSC125973), vemurafenib (NSC761431), MSA-2 (NSC828583), SN-011 (NSC837082), adavosertib (NSC754352), prexasertib (NSC758257), carboplatin (NSC241240) and oxaliplatin (NSC266046), were obtained from the National Cancer Institute (NCI) Developmental Therapeutics Program Chemical Repository (21). The FDA-approved anticancer drug set is available from the Developmental Therapeutics Program at https://dtp.cancer.gov/organization/dscb/obtaining/. […] The stock solutions were prepared in dimethyl sulfoxide (DMSO, Sigma-Aldrich, St. Louis, MO, cat. D2650), except for the platinum compounds which were prepared in saline (Quality Biological, Gaithersburg, MD, cat. 114-055-101), at 800-fold the tested concentration and stored at -70 degrees C prior to their use. All drugs and investigational agents were tested over a range starting from a high concentration at or near the clinical Cmax and decreasing in half-log increments. If the clinical Cmax for an agent had not been determined, the highest concentration tested was 10 microM, except for SN-38, which was tested at a high concentration of 1 microM.
Cell Culture. All cells were maintained in an incubator at 37 degrees C and 5% CO2 with 95% humidity. The PDC lines were cultured according to standard operating procedures established by the NCI PDMR (https://pdmr.cancer.gov). Table 3 of the manuscript, lists the cell lines along with the number of the three cell types plated to form the mct-spheroids and media for tumor cell growth. After thawing, all PDC lines, except 997537-175-T-J1-PDC and 415267-285-R-J2-PDC, were cultured in Matrigel-coated flasks prepared with a working solution of 1X Ham's F-12 nutrient mix, without supplementation (Thermo Fisher Scientific, cat. 11765054), 100 U/mL penicillin-streptomycin (Thermo Fisher Scientific, cat. 15140122), and 2.5% Matrigel (Corning Inc., Corning, NY, cat. 354248) for the first three passages. The two PDC lines 997537-175-T-J1-PDC and 415267-285-R-J2-PDC were cultured on uncoated flasks. The 857933-349-R-J2-PDC line was cultured in 6C/Colon 1B media containing advanced DMEM/F-12 (Thermo Fisher Scientific, cat. 12634028), 10 mM HEPES (Thermo Fisher Scientific, cat. 15630080), 1X GlutaMAX supplement (Thermo Fisher Scientific, cat. 35050061), 0.1 mg/mL primocin (InvivoGen, San Diego, CA, cat. ant-pm-2), 10% defined fetal bovine serum, heat inactivated (HyClone Laboratories Inc., Logan, UT, cat. SH30070.03HI), 50% L-WRN conditioned media (ATCC, cat. CRL-3276), 1.25 mM N-Acetyl-L-cysteine (Sigma-Aldrich, cat. A9165), 10 mM nicotinamide (Sigma-Aldrich, cat. N0636), 1X B-27 supplement (Thermo Fisher Scientific, cat. 17504044), 1X N-2 supplement (Thermo Fisher Scientific, cat. […]

[1] = compound alone, run of 11/06/2023
[2] = compound alone, run of 10/31/2023
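Further: spheroids exposed to drugs for 7 days.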
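Wherever viability, T/C is given: 100% = DMSO vehicle treated spheroids.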

C=CC(=O)N1CCN(c2nc(=O)n(-c3c(C)ccnc3C(C)C)c3nc(-c4c(O)cccc4F)c(F)cc23)C(C)C1 (stereo not drawn)
viability, T/C (compound 0.0316 µM): 127% and 82.1% and 87.4%
viability, T/C (compound 0.1 µM): 72.6% and 95.5% and 105%
viability, T/C (compound 0.316 µM): 121% and 63.8% and 132%
viability, T/C (compound 1 µM): 101% and 104% and 100%
viability, T/C (compound 3.16 µM): 102% and 93.9% and 110%
viability, T/C (compound 10 µM): 120% and 102% and 100%
IC50 (curve of compound): > 10 µM

O=C(Nc1ccc(O)c(NS(=O)(=O)c2ccc(F)cc2)c1)c1ccc(-c2ccccc2)cc1 + COC1C(OC(N)=O)C(O)C(Oc2ccc3c(O)c(NC(=O)c4ccc(O)c(CC=C(C)C)c4)c(=O)oc3c2C)OC1(C)C
IC50 (curve of first compound, second compound 0.0316 µM): 6.64 µM
IC50 (curve of first compound, second compound 0.1 µM): 6.29 µM
IC50 (curve of first compound, second compound 0.316 µM): 6.09 µM
IC50 (curve of first compound, second compound 1 µM): 6.3 µM
IC50 (curve of first compound, second compound 3.16 µM): 5.45 µM
IC50 (curve of first compound, second compound 10 µM): 4.58 µM
viability, T/C (second compound 0.0316 µM, first compound 0.0316 µM): 87.9%
viability, T/C (second compound 0.0316 µM, first compound 0.1 µM): 103%
viability, T/C (second compound 0.0316 µM, first compound 0.316 µM): 101%
viability, T/C (second compound 0.0316 µM, first compound 1 µM): 111%
viability, T/C (second compound 0.0316 µM, first compound 3.16 µM): 93%
viability, T/C (second compound 0.0316 µM, first compound 10 µM): 25.9%
viability, T/C (second compound 0.1 µM, first compound 0.0316 µM): 96%
viability, T/C (second compound 0.1 µM, first compound 0.1 µM): 105%
viability, T/C (second compound 0.1 µM, first compound 0.316 µM): 80.2%
viability, T/C (second compound 0.1 µM, first compound 1 µM): 94.4%
viability, T/C (second compound 0.1 µM, first compound 3.16 µM): 82.6%
viability, T/C (second compound 0.1 µM, first compound 10 µM): 27.9%
viability, T/C (second compound 0.316 µM, first compound 0.0316 µM): 99%
viability, T/C (second compound 0.316 µM, first compound 0.1 µM): 123%
viability, T/C (second compound 0.316 µM, first compound 0.316 µM): 84.3%
viability, T/C (second compound 0.316 µM, first compound 1 µM): 87.3%
viability, T/C (second compound 0.316 µM, first compound 3.16 µM): 85.1%
viability, T/C (second compound 0.316 µM, first compound 10 µM): 27.6%
viability, T/C (second compound 1 µM, first compound 0.0316 µM): 100%
viability, T/C (second compound 1 µM, first compound 0.1 µM): 81.8%
viability, T/C (second compound 1 µM, first compound 0.316 µM): 109%
viability, T/C (second compound 1 µM, first compound 1 µM): 111%
viability, T/C (second compound 1 µM, first compound 3.16 µM): 78%
viability, T/C (second compound 1 µM, first compound 10 µM): 31.1%
viability, T/C (second compound 3.16 µM, first compound 0.0316 µM): 97.8%
viability, T/C (second compound 3.16 µM, first compound 0.1 µM): 103%
viability, T/C (second compound 3.16 µM, first compound 0.316 µM): 92.3%
viability, T/C (second compound 3.16 µM, first compound 1 µM): 83.5%
viability, T/C (second compound 3.16 µM, first compound 3.16 µM): 66.2%
viability, T/C (second compound 3.16 µM, first compound 10 µM): 32.4%
viability, T/C (second compound 10 µM, first compound 0.0316 µM): 82.2%
viability, T/C (second compound 10 µM, first compound 0.1 µM): 102%
viability, T/C (second compound 10 µM, first compound 0.316 µM): 84.5%
viability, T/C (second compound 10 µM, first compound 1 µM): 129%
viability, T/C (second compound 10 µM, first compound 3.16 µM): 60.1%
viability, T/C (second compound 10 µM, first compound 10 µM): 28.5%

Nc1ccc(C#CCN(C(=O)Cc2ncc(C(F)(F)F)cc2C(F)(F)F)c2ccc(F)cc2)nn1
viability, T/C (compound 10 µM): 94.6% [middle of 13 runs]
IC50 [1]: > 10 µM

COc1cccc2c1C(=O)c1c(O)c3c(c(O)c1C2=O)CC(O)(C(=O)CO)CC3OC1CC(N)C(O)C(C)O1 (stereo not drawn)
viability, T/C (compound 0.0316 µM): 24.5% and 30.4% and 28.5%
viability, T/C (compound 0.1 µM): 5.96% and 8.53% and 11.6%
viability, T/C (compound 0.316 µM): 2.17% and 5.76% and 2.69%
viability, T/C (compound 1 µM): 1.78% and 1.25% and 2.38%
viability, T/C (compound 3.16 µM): 2.29% and 1.69% and 2.17%
viability, T/C (compound 10 µM): 2.7% and 0.94% and 0.62%
IC50 (curve of compound): < 0.0316 µM

CC(C)n1c(=O)n(C)c2cnc3cc(F)c(-c4ccc(OCCCN5CCCCC5)nc4)cc3c21
viability, T/C (compound 0.0316 µM): 95.4% and 78.5% and 82.5%
viability, T/C (compound 0.1 µM): 86.1% and 90.5% and 82.5%
viability, T/C (compound 0.316 µM): 93.8% and 117% and 70.9%
viability, T/C (compound 1 µM): 86.5% and 77.2% and 84.3%
viability, T/C (compound 3.16 µM): 56.9% and 68.1% and 62.2%
viability, T/C (compound 10 µM): 21.2% and 41.8% and 25.7%
IC50 (curve of compound): 3.94 µM and 6.87 µM and 4.65 µM

CC[C@@]1(O)C(=O)OCc2c1cc1n(c2=O)Cc2cc3c(CN(C)C)c(O)ccc3nc2-1
viability, T/C (compound 0.000316 µM): 86.1% and 53.9% and 105%
viability, T/C (compound 0.001 µM): 101% and 95.2% and 87.8%
viability, T/C (compound 0.00316 µM): 86.5% and 108% and 111%
viability, T/C (compound 0.01 µM): 71.5% and 74% and 68.2%
viability, T/C (compound 0.0316 µM): 28% and 52% and 41.7%
viability, T/C (compound 0.1 µM): 13.2% and 9.44% and 10.1%
IC50 (curve of compound): 0.0176 µM and 0.0328 µM and 0.0221 µM

COC1C(OC(N)=O)C(O)C(Oc2ccc3c(O)c(NC(=O)c4ccc(O)c(CC=C(C)C)c4)c(=O)oc3c2C)OC1(C)C (stereo not drawn)
IC50 [2]: > 10 µM

Cc1cccc(N(C)C(=O)C2C(O)CCN2c2nc(C)cc(C(F)(F)F)c2C#N)c1 (stereo not drawn)
viability, T/C (compound 0.1 µM): 93.6% [middle of 13 runs]
IC50 [2]: > 10 µM
IC50 [1]: > 10 µM

Nc1ccn(C2OC(CO)C(O)C2(F)F)c(=O)n1 (stereo not drawn)
viability, T/C (compound 0.0316 µM): 26% and 34.1% and 24.7%
viability, T/C (compound 0.1 µM): 4.77% and 7.08% and 7.51%
viability, T/C (compound 0.316 µM): 5.46% and 6.51% and 7.23%
viability, T/C (compound 1 µM): 6.12% and 6.87% and 8.28%
viability, T/C (compound 3.16 µM): 4.43% and 9.96% and 4.73%
viability, T/C (compound 10 µM): 1.87% and 3.82% and 1.78%
IC50 (curve of compound): < 0.0316 µM
